# Experimental data from patent US20240307500A1, “SUSTAINED RELEASE FORMULATION COMPOSITION COMPRISING SEMAGLUTIDE OR PHARMACEUTICALLY ACCEPTABLE SALT THEREOF” (PEPTRON, INC., priority 2021, published 2024).
# Tested on: SD rats
# Assay: Oral glucose tolerance test (OGTT), hypoglycemic effects after single SC injection
# Format: in vivo
# Conditions: single SC 0.123 mpk semaglutide
# Protocol: An oral glucose tolerance test (OGTT) was performed to confirm hypoglycemic effects of the sustained-release microspheres including semaglutide of the present invention. First, the experiment was conducted by dividing 8-week-old SD rats (18 rats; 6 rats in each group) into 3 groups. It was divided into a negative control group (Control), a positive control group (API) and Example 3 formulation administration group (PT403)), wherein the positive control group (API) was subcutaneously injected once with 0.123 mpk of semaglutide, and the Example 3 formulation administration group (PT403) was injected with the Example 3 formulation subcutaneously with 4 mpk.
# After drug administration, total 5 OGTTs (Days 1, 7, 16, 21 and 28) were performed, and 2 g/kg of glucose was orally administered to SD rats fasted for 18 hours. Immediately after glucose administration, and after 15, 30, 60, 90, 120, and 180 minutes, blood was collected from the tail to measure blood glucose.
substance,measurement,value
"N^6,26-{18-[N-(17-carboxyheptadecanoyl)-L-γ-glutamyl]-10-oxo-3, 6, 12, 15-tetraoxa-9, 18-diazaoctadecanoyl}-[8-(2-amino-2-propanoic acid), 34-L-arginine] human glucan-like peptide 1 (7-37) [API]",hypoglycemic effects (in words),returned to normal on the 7th day
